From patent US20240190886A1, “BRM Targeting Compounds and Associated Methods of Use” (Prelude Therapeutics Incorporated, priority 2022, published 2024)

Tests used:
[1] = system: SMARCA4 mutated cancer cells; conditions: SMARCA 2/4 bromodomain inhibitors; literature statement; cited from earlier work
SMARCA2 = molecular target: T1, SMARCA2 (Homo sapiens, UniProt P51531); assay: SMARCA2 HiBiT degradation assay in HeLa cells; assay type: cell-based; conditions: 18 hours incubation, Nano-Glo HiBiT Lytic detection
T1 construct: SMARCA2-HiBiT knock-in Hela monoclonal cell (CS302366) and SMARCA4-HiBiT knock-in Hela monoclonal cell (CS3023226) were purchased from Promega; host or cells: HeLa SMARCA2-HiBiT knock-in monoclonal cells (heterozygous knock-in)
Procedure: (§1) Example A. SMARCA2 HiBiT and SMARCA4 HiBiT Degradation Assay
(§2) HiBiT peptide knock-in of SMARCA2 in LgBiT expressing HEK293T cells was performed by CRISPR-mediated tagging system as described Promega. The homozygous HiBiT knock-in on c-terminus SMARCA2 was confirmed by sanger sequence. SMARCA2-HiBiT knock-in Hela monoclonal cell (CS302366) and SMARCA4-HiBiT knock-in Hela monoclonal cell (CS3023226) were purchased from Promega. The heterozygous HiBiT-knock-in was confirmed by sanger sequence in both SMARCA2-HiBiT and SMARCA4-HiBiT monoclonal cells.
(§3) SMARCA2 HiBiT and SMARCA4 HiBiT degradation assay in HeLa cells
(§4) Dispense 10 ul aliquot of prepared Hela-SMARCA2-HiBiT or Hela-SMARCA4-HiBiT cells (1:1 ratio of cells:Trypan Blue (#1450013, Bio-Rad)) onto cell counting slide (#145-0011, Bio-Rad) and obtain cell density and cell viability using cell counter (TC20, Bio-Rad). Remove appropriate volume of resuspended cells from culture flask to accommodate 2500 cells/well @20 μL/well. Transfer Hela-HiBiT cells to 50 mL conical (#430290, Corning). Spin down at 1000 rpm for 5 min using tabletop centrifuge (SPINCHRON 15, Beckman). Discard supernatant and resuspend cell pellet in modified EMEM (#30-2003, ATCC) cell culture media containing 10% FBS (F2422-500ML, Sigma), and 1X Penicillin/Streptomycin (200 g/L) (30-002-CI, Corning) to a cell density of 125,000 cells/mL. Dispense 20 μLof resuspended Hela-HiBit cells per well in 384-well TC treated plate (#12-565-343, Thermo Scientific) using standard cassette (#50950372, Thermo Scientific) on Multidrop Combi (#5840310, Thermo Scientific) inside laminar flow cabinet.
(§5) Compounds were dissolved in DMSO to make 10 mM stock and 3-fold series dilutions were further conducted keeping the highest concentration 10 RM. Dispense test compounds onto plates using digital liquid dispenser (D300E, Tecan). Incubate plates in humidified tissue culture incubator @37° C. for 18 hours. Add 20 μL of prepared Nano-Glo® HiBiT Lytic detection buffer (N3050, Promega) to each well of 384-well plate using small tube cassette (#24073295, Thermo Scientific) on Multidrop Combi, incubate @ RT for 30-60 min. Read plates on microplate reader (Envision 2105, PerkinElmer) using 384 well Ultra-Sensitive luminescence mode. Raw data files and compound information reports are swept into centralized data lake and deconvoluted using automated scripts designed by TetraScience, Inc. Data analysis, curve-fitting and reporting done in Dotmatics Informatics Suite using Screening Ultra module.
(§6) In Table 1, A=DC50<0.1 RM; B=0.1 μM≤DC50<1 μM and C=DC50>1 μM. In Table 4, A=Dmax>75% and B=50%<Dmax<75% and C=Dmax<50%.

SMARCA4 = molecular target: T2, SMARCA4 (Homo sapiens, UniProt P51532); assay: SMARCA4 HiBiT degradation assay in HeLa cells; assay type: cell-based; conditions: 18 hours incubation, Nano-Glo HiBiT Lytic detection
T2 construct: SMARCA2-HiBiT knock-in Hela monoclonal cell (CS302366) and SMARCA4-HiBiT knock-in Hela monoclonal cell (CS3023226) were purchased from Promega; host or cells: HeLa SMARCA4-HiBiT knock-in monoclonal cells (heterozygous knock-in)
Procedure: as §1, §2, §3, §4, §5, §6

T2 sequence (P51532 whole entry): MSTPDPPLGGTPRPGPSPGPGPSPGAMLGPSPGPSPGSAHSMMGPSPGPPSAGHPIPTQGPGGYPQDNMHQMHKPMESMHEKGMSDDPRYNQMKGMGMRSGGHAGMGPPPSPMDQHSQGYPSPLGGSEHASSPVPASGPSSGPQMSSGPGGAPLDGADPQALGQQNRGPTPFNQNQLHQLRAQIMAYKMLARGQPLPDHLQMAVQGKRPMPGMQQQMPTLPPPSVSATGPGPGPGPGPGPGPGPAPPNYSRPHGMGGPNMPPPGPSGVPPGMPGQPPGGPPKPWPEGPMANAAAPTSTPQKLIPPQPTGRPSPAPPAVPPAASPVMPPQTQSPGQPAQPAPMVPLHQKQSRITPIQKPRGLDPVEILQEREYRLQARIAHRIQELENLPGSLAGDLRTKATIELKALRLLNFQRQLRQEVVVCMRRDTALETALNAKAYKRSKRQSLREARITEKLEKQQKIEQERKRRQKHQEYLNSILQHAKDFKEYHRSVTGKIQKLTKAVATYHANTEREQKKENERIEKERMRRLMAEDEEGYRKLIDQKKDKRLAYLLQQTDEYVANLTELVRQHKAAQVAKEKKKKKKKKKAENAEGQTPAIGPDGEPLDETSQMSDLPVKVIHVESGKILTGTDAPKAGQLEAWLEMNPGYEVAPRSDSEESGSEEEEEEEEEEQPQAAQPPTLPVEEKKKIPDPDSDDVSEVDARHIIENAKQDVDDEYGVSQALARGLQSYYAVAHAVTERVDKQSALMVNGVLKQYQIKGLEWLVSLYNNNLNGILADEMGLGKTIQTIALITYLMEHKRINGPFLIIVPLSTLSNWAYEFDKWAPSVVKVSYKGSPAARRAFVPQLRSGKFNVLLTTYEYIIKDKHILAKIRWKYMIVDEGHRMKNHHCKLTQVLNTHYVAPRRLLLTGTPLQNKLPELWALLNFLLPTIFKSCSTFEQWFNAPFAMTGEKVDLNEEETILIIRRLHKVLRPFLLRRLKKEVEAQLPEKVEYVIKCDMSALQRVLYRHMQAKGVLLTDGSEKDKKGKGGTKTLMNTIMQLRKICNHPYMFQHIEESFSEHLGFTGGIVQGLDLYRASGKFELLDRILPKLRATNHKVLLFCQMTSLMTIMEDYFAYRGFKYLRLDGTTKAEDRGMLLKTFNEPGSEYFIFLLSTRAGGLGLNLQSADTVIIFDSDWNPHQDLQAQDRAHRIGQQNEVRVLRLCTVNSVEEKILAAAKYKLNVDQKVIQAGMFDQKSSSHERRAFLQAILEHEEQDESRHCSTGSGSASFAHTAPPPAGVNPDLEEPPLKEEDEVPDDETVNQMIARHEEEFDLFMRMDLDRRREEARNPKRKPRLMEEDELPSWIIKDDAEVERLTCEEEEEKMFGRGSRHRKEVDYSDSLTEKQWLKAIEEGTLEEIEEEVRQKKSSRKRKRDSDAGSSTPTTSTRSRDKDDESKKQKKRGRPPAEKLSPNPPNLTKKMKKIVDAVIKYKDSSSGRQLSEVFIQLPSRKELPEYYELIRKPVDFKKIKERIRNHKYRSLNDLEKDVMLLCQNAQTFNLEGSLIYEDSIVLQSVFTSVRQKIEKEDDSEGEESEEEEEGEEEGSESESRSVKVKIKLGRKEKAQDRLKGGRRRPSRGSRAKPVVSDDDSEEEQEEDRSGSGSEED
T1 sequence (P51531 whole entry): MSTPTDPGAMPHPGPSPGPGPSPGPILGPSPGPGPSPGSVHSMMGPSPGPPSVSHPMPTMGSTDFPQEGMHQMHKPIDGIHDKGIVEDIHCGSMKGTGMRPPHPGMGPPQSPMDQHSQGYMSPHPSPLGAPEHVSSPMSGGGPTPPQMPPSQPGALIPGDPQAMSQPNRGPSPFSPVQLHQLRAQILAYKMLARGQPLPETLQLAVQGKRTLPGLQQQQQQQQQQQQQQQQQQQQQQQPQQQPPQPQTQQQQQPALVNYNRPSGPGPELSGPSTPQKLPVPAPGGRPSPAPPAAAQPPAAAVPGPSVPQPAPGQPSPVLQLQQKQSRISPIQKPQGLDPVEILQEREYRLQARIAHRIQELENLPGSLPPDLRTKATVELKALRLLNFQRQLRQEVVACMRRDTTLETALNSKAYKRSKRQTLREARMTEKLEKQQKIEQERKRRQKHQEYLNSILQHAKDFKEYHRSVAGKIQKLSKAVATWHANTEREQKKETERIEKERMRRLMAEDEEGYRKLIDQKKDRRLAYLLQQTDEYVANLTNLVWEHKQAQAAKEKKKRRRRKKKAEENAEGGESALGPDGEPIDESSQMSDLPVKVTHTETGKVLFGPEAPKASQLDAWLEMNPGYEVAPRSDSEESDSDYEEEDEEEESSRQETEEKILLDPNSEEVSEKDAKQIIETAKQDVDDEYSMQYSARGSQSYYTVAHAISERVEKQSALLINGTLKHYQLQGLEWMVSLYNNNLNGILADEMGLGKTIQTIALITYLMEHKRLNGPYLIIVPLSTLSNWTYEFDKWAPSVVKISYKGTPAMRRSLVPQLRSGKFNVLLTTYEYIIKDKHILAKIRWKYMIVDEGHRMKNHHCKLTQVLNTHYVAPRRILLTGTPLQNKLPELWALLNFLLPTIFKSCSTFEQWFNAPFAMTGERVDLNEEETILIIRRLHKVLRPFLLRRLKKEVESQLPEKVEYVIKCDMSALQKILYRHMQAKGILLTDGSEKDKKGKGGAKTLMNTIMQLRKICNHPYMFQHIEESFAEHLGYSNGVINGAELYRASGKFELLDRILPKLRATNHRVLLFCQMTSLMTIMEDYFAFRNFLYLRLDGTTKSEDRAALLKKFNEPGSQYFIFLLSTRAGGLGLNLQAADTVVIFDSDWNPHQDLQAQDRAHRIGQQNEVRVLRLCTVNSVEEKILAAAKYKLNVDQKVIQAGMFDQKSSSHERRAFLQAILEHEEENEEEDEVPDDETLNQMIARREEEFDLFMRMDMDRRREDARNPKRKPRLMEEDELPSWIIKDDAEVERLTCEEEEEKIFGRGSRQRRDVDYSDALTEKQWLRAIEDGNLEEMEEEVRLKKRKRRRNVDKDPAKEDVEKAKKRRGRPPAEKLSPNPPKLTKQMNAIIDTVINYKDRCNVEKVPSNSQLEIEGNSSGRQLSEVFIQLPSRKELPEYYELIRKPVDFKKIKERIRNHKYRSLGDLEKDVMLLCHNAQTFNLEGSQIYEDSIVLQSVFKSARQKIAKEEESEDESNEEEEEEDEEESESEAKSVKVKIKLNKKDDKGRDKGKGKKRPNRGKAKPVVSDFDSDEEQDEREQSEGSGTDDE

| SMILES | effects on cell proliferation inhibition [1] | DC50 (SMARCA2) [µM] | Dmax (SMARCA2) [%] | DC50 (SMARCA4) [µM] | Dmax (SMARCA4) [%] |
| --- | --- | --- | --- | --- | --- |
| O=C(/C=C/N1C[C@H]2C[C@@H]1CN2c1ccccn1)c1ccccc1O [PFI-3] | none to minor effects | – | – | – | – |
| O=C1CCC(c2ccc(C3CCN(Cc4ccc(O[C@H]5CN6c7cc(-c8ccccc8O)nnc7NC[C@@]6(C(F)F)C5)nc4)CC3)cc2)C(=O)N1 (stereo partly drawn) [Example 15, 3-(4-(1-((6-(((6aR,8R)-6a-(difluoromethyl)-2-(2-hydroxyphenyl)-5,6,6a,7,8,9-hexahydropyrrolo[1′,2′:4,5]pyrazino[2,3-c]pyridazin-8-yl)oxy)pyridin-3-yl)methyl)piperidin-4-yl)phenyl)piperidine-2,6-dione] | – | < 0.1 | 50 to 75 | < 0.1 | > 75 |
| CC[C@]12CNc3nnc(-c4ccccc4O)cc3N1C[C@H](Oc1ccc(CN3CCN(c4ccc(NC5CCC(=O)NC5=O)cc4F)CC3)cn1)C2 (stereo partly drawn) [Example 11, 3-((4-(4-((6-(((6aS,8R)-6a-ethyl-2-(2-hydroxyphenyl)-5,6,6a,7,8,9-hexahydro-pyrrolo[1′,2′:4,5]pyrazino[2,3-c]pyridazin-8-yl)oxy)pyridin-3-yl)methyl)piperazin-1-yl)-3-fluorophenyl)amino)piperidine-2,6-dione] | – | < 0.1 | > 75 | < 0.1 | > 75 |
| C[C@@H]1CN(CC2CCN(c3ccc4ncn(C5CCC(=O)NC5=O)c(=O)c4c3)CC2)C[C@H](C)N1C(=O)N1CCN2c3cc(-c4ccccc4O)nnc3NC[C@H]2C1 (stereo partly drawn) [Example 2, 3-(6-(4-(((3R,5S)-4-((S)-2-(2-hydroxyphenyl)-6,6a,7,8,9,10-hexahydro-5H-pyrazino[1′,2′:4,5]pyrazino[2,3-c]pyridazine-8-carbonyl)-3,5-dimethylpiperazin-1-yl)methyl)piperidin-1-yl)-4-oxoquinazolin-3(4H)-yl)piperidine-2,6-dione] | – | < 0.1 | 50 to 75 | 0.1 to 1 | 50 to 75 |
